This assay deals with T1, GLP-1 Receptor (Homo sapiens, UniProt P43220).
T1 construct: host or cells: HEK293/GLP1R/CRE-LUC (HEK293/CRE-Luc stably expressing the GLP-1 receptor)
Description: GLP-1R agonist cAMP stimulation assay (HEK293/GLP1R/CRE-LUC cells, Cisbio cAMP dynamic 2 kit).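 Also: compounds tested in half-log serial dilution, cAMP detected with cAMP-d2 and anti-cAMP cryptate antibody reagents after 1 h at room temperature.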 The class given is cell-based. The following applies: HEK293/CRE-Luc cell line stably expressing the GLP-1 Receptor; 1000 cells/well; 30 min at 37° C.; 0.5 mM IBMX, 0.1% BSA; read-out: GLP1R cAMP Stimulation DR: EC50.

In general, EC50 refers to the concentration that produces a half-maximal response.

T1 sequence (P43220 24-463, species assumed): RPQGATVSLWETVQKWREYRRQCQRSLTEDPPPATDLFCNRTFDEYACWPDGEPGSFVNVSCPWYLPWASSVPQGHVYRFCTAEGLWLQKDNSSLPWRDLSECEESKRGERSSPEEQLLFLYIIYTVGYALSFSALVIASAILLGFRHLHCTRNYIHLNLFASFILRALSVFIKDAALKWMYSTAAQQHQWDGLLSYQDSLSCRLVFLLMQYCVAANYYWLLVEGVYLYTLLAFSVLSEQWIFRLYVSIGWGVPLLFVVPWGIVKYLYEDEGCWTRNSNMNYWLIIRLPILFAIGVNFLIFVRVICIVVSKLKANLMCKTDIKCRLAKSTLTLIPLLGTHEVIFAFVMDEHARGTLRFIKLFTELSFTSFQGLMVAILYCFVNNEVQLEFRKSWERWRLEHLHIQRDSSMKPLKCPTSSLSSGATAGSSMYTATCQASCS

Turning to `CC1(c2ccc(Cl)cc2F)Oc2cccc(C3CCN(Cc4ncc(CCC(=O)O)n4Cc4ccccc4)CC3)c2O1` (stereo not shown) [Compound 242, 3-(1-benzyl-2-((4-(2-(4-chloro-2-fluorophenyl)-2-methylbenzo[d][1,3]dioxol-4-yl)piperidin-1-yl)methyl)-1H-imidazol-5-yl)propanoic acid], the EC50 stood at 0.63 nM.
Consider `COc1cccc(Cn2c(CCC(=O)O)cnc2CN2CCC(c3cccc4c3OC(C)(c3ccc(Cl)cc3F)O4)CC2)c1` (stereo not shown) [Compound 243, 3-(2-((4-(2-(4-chloro-2-fluorophenyl)-2-methylbenzo[d][1,3]dioxol-4-yl)piperidin-1-yl)methyl)-1-(3-methoxybenzyl)-1H-imidazol-5-yl)propanoic acid], for which the EC50 is 0.87 nM.
The result for `CCn1cncc1Cn1c(CCC(=O)O)cnc1CN1CCC(c2cccc(OCc3ccc(Cl)cc3F)n2)CC1` [Compound 244, 3-(2-((4-(6-((4-chloro-2-fluorobenzyl)oxy)pyridin-2-yl)piperidin-1-yl)methyl)-1-((1-ethyl-1H-imidazol-5-yl)methyl)-1H-imidazol-5-yl)propanoic acid] reads 0.023 nM; that for `CCn1cncc1Cn1c(CCC(=O)O)cnc1CN1CCC(c2cccc3c2OC[C@@H](c2ccc(Cl)cc2)O3)CC1` [Compound 245, (R)-3-(2-((4-(2-(4-chlorophenyl)-2,3-dihydrobenzo [b][1,4]dioxin-5-yl)piperidin-1-yl)methyl)-1-((1-ethyl-1H-imidazol-5-yl)methyl)-1H-imidazol-5-yl)propanoic acid], 0.15 nM; that for `CCn1cncc1Cn1c(CCC(=O)O)nnc1CN1CCC(c2cccc3c2OC[C@@H](c2ccc(Cl)cc2)O3)CC1` [Compound 246, (R)-3-(5-((4-(2-(4-chlorophenyl)-2,3-dihydrobenzo [b][1,4]dioxin-5-yl)piperidin-1-yl)methyl)-4-((1-ethyl-1H-imidazol-5-yl)methyl)-4H-1,2,4-triazol-3-yl)propanoic acid], 0.38 nM.
As for `Cn1c(C2CCC(C(=O)O)C2)cnc1CN1CCC(c2cccc3c2OC(C)(c2ccc(Cl)cc2F)O3)CC1` (stereo not shown) [Compound 247, 3-(2-((4-(2-(4-chloro-2-fluorophenyl)-2-methylbenzo[d][1,3]dioxol-4-yl)piperidin-1-yl)methyl)-1-methyl-1H-imidazol-5-yl)cyclopentane-1-carboxylic acid], the EC50 came out at 310 nM.
As to `O=C(O)C1CC1c1cnc(CN2CCC(c3cccc4c3OC[C@@H](c3ccc(Cl)cc3)O4)CC2)n1C[C@@H]1CCO1` (stereo partly drawn) [Compound 248, 2-(2-((4-((R)-2-(4-chlorophenyl)-2,3-dihydrobenzo[b][1,4]dioxin-5-yl)piperidin-1-yl)methyl)-1-(((S)-oxetan-2-yl)methyl)-1H-imidazol-5-yl)cyclopropane-1-carboxylic acid], the EC50 was found to be 35 nM.
Regarding `O=c1[nH]c(-c2cnc(CN3CCC(c4cccc(OCc5ccc(Cl)cc5F)n4)CC3)n2C[C@@H]2CCO2)no1` [Compound 249a, (S)-3-(2-((4-(6-((4-chloro-2-fluorobenzyl)oxy)pyridin-2-yl)piperidin-1-yl)methyl)-1-(oxetan-2-ylmethyl)-1H-imidazol-5-yl)-1,2,4-oxadiazol-5(4H)-one], the EC50 was determined as 3.7 nM.
Take `Cn1c(-c2cc(=O)[nH]o2)cnc1CN1CCC(c2cccc(OCc3ccc(Cl)cc3F)n2)CC1` [Compound 250, 5-(2-((4-(6-((4-chloro-2-fluorobenzyl)oxy)pyridin-2-yl)piperidin-1-yl)methyl)-1-methyl-1H-imidazol-5-yl)isoxazol-3(2H)-one]: the EC50 is 1.6 nM.
Regarding `COCCn1c(Cc2noc(=O)[nH]2)cnc1CN1CCC(c2cccc3c2OC(C)(c2ccc(Cl)cc2F)O3)CC1` (stereo not shown) [Compound 251, 3-((2-((4-(2-(4-chloro-2-fluorophenyl)-2-methylbenzo[d][1,3]dioxol-4-yl)piperidin-1-yl)methyl)-1-(2-methoxyethyl)-1H-imidazol-5-yl)methyl)-1,2,4-oxadiazol-5(4H)-one], the concentration for a half-maximal effect (EC50) is 13 nM.
Take `Cc1cc(-c2noc(=O)[nH]2)cnc1CN1CCC(c2cccc3c2OC(C)(c2ccc(Cl)cc2F)O3)CC1` (stereo not shown) [Compound 252, 3-(6-((4-(2-(4-chloro-2-fluorophenyl)-2-methylbenzo[d][1,3]dioxol-4-yl)piperidin-1-yl)methyl)-5-methylpyridin-3-yl)-1,2,4-oxadiazol-5(4H)-one]: the EC50 came out at 11 nM.
For `Cc1cc(-c2nnn[nH]2)cnc1CN1CCC(c2cccc3c2OC(C)(c2ccc(Cl)cc2F)O3)CC1` (stereo not shown) [Compound 253, 2-({4-[2-(4-chloro-2-fluorophenyl)-2-methyl-2H-1,3-benzodioxol-4-yl]piperidin-1-yl}methyl)-3-methyl-5-(1H-1,2,3,4-tetrazol-5-yl)pyridine] the value was 4 nM.
On to `Cc1cc(-c2n[nH]c(=O)o2)cnc1CN1CCC(c2cccc3c2OC(C)(c2ccc(Cl)cc2F)O3)CC1` (stereo not shown) [Compound 254, 5-[6-({4-[2-(4-chloro-2-fluorophenyl)-2-methyl-2H-1,3-benzodioxol-4-yl]piperidin-1-yl}methyl)-5-methylpyridin-3-yl]-2,3-dihydro-1,3,4-oxadiazol-2-one], for which the EC50 came to 10 nM.
The result for `Cc1cc(-c2nnc(C(F)(F)F)[nH]2)cnc1CN1CCC(c2cccc3c2OC(C)(c2ccc(Cl)cc2F)O3)CC1` (stereo not shown) [Compound 255, 2-({4-[2-(4-chloro-2-fluorophenyl)-2-methyl-2H-1,3-benzodioxol-4-yl]piperidin-1-yl}methyl)-3-methyl-5-[5-(trifluoromethyl)-4H-1,2,4-triazol-3-yl]pyridine] reads 8.3 nM.
For `COCCc1cc(-c2nnn[nH]2)cnc1CN1CCC(c2cccc3c2OC(C)(c2ccc(Cl)cc2F)O3)CC1` (stereo not shown) [Compound 256, 2-({4-[2-(4-chloro-2-fluorophenyl)-2-methyl-2H-1,3-benzodioxol-4-yl]piperidin-1-yl}methyl)-3-(2-methoxyethyl)-5-(1H-1,2,3,4-tetrazol-5-yl)pyridine] the value was 5 nM; for `Cc1cc(-c2nnc(C(F)F)[nH]2)cnc1CN1CCC(c2cccc3c2OC(C)(c2ccc(Cl)cc2F)O3)CC1` (stereo not shown) [Compound 257, 2-({4-[2-(4-chloro-2-fluorophenyl)-2-methyl-2H-1,3-benzodioxol-4-yl]piperidin-1-yl}methyl)-5-[5-(difluoromethyl)-4H-1,2,4-triazol-3-yl]-3-methylpyridine], 14 nM.
Take `C[C@]1(c2ccc(Cl)cc2F)Oc2cccc(C3CCN(Cc4ncc(-c5nnc(C(F)(F)F)[nH]5)cc4CC4(C#N)CC4)CC3)c2O1` [Compound 258, 1-{[2-({4-[(2S)-2-(4-chloro-2-fluorophenyl)-2-methyl-2H-1,3-benzodioxol-4-yl]piperidin-1-yl}methyl)-5-[5-(trifluoromethyl)-4H-1,2,4-triazol-3-yl]pyridin-3-yl]methyl}cyclopropane-1-carbonitrile]: the EC50 came out at 0.0061 nM.
On to `COCCc1cc(-c2nnc(C(F)(F)F)[nH]2)cnc1CN1CCC(c2cccc3c2O[C@@](C)(c2ccc(Cl)cc2F)O3)CC1` [Compound 259, 2-({4-[(2S)-2-(4-chloro-2-fluorophenyl)-2-methyl-2H-1,3-benzodioxol-4-yl]piperidin-1-yl}methyl)-3-(2-methoxyethyl)-5-[5-(trifluoromethyl)-4H-1,2,4-triazol-3-yl]pyridine], for which the EC50 turned out to be 0.53 nM.
As for `COCCc1cc(-c2nnc(C(F)(F)F)[nH]2)cnc1CN1CCC(c2cccc3c2O[C@@](C)(c2ccc(C#N)cc2F)O3)CC1` [Compound 260, 3-fluoro-4-[(2S)-4-(1-{[3-(2-methoxyethyl)-5-[5-(trifluoromethyl)-4H-1,2,4-triazol-3-yl]pyridin-2-yl]methyl}piperidin-4-yl)-2-methyl-2H-1,3-benzodioxol-2-yl]benzonitrile], the EC50 was 2.3 nM.
For `COCCc1cc(-c2nnc(C(F)(F)F)[nH]2)cnc1CN1CCC(c2cccc3c2OC(C)(c2ccc(Cl)cc2)O3)CC1` (stereo not shown) [Compound 261, 2-({4-[2-(4-chlorophenyl)-2-methyl-2H-1,3-benzodioxol-4-yl]piperidin-1-yl}methyl)-3-(2-methoxyethyl)-5-[5-(trifluoromethyl)-4H-1,2,4-triazol-3-yl]pyridine], the EC50 came to 5.3 nM.
For `Cc1cc(-c2nnc(C(F)(F)F)[nH]2)cnc1CN1CCC(c2cccc3c2OC(C)(c2ccc(F)cc2F)O3)CC1` (stereo not shown) [Compound 262, 2-({4-[2-(2,4-difluorophenyl)-2-methyl-2H-1,3-benzodioxol-4-yl]piperidin-1-yl}methyl)-3-methyl-5-[5-(trifluoromethyl)-4H-1,2,4-triazol-3-yl]pyridine] the value was 3 nM; for `Cc1cc(-c2nnc(C(F)(F)F)[nH]2)cnc1CN1CCC(c2cccc3c2OC(C)(c2ccc(F)cc2)O3)CC1` (stereo not shown) [Compound 263, 2-({4-[2-(4-fluorophenyl)-2-methyl-2H-1,3-benzodioxol-4-yl]piperidin-1-yl}methyl)-3-methyl-5-[5-(trifluoromethyl)-4H-1,2,4-triazol-3-yl]pyridine], 6.8 nM.
The result for `Cc1cc(-c2nnc(C(F)(F)F)[nH]2)cnc1CN1CCC(c2cccc3c2OC(C)(c2ccc(Cl)cn2)O3)CC1` (stereo not shown) [Compound 264, 2-({4-[2-(5-chloropyridin-2-yl)-2-methyl-2H-1,3-benzodioxol-4-yl]piperidin-1-yl}methyl)-3-methyl-5-[5-(trifluoromethyl)-4H-1,2,4-triazol-3-yl]pyridine] reads 15 nM.
Regarding `Cc1cc(-c2nnc(C(F)(F)F)[nH]2)cnc1CN1CCC(c2cccc3c2OC(C)(c2ccc(Cl)cc2)O3)CC1` (stereo not shown) [Compound 265, 2-({4-[2-(4-chlorophenyl)-2-methyl-2H-1,3-benzodioxol-4-yl]piperidin-1-yl}methyl)-3-methyl-5-[5-(trifluoromethyl)-4H-1,2,4-triazol-3-yl]pyridine], the EC50 was determined as 4.5 nM.
Regarding `CC1(c2ccc(Cl)cc2F)Oc2cccc(C3CCN(Cc4ncc(-c5nnc(C(F)(F)F)[nH]5)cc4CC4CCCS4(=O)=O)CC3)c2O1` (stereo not shown) [Compound 266, 2-{[2-({4-[2-(4-chloro-2-fluorophenyl)-2-methyl-2H-1,3-benzodioxol-4-yl]piperidin-1-yl}methyl)-5-[5-(trifluoromethyl)-4H-1,2,4-triazol-3-yl]pyridin-3-yl]methyl}-1λ^6-thiolane-1,1-dione], the EC50 turned out to be 10 nM.

These data come from patent US11897851B2, “Heterocyclic GLP-1 agonists” (Gasherbrum Bio, Inc., priority 2021, dated 2024).
